Data on two molecules can be found in article PMC10183817, “Inhibition of ATP synthase reverse activity restores energy homeostasis in mitochondrial pathologies” (The EMBO Journal, 2023).

Assay [1] addresses T1, mitochondrial ATP synthase (F1F0ATPase, Complex V, CV) (Mus musculus, UniProt P56480+Q03265).
T1 construct: gene Atp5f1a; native fully assembled complex in isolated mouse heart mitochondria (frozen/thawed, or separated by blue native gel); with ATP synthase F(1) complex subunit gamma, mitochondrial; ATP synthase F(1) complex subunit delta, mitochondrial; ATP synthase F(1) complex subunit epsilon, mitochondrial; ATP synthase peripheral stalk subunit OSCP, mitochondrial; ATP synthase peripheral stalk subunit b, mitochondrial; ATP synthase peripheral stalk subunit d, mitochondrial; ATP synthase peripheral stalk subunit F6, mitochondrial; ATP synthase F(0) complex subunit a; ATP synthase F(0) complex subunit 8; ATP synthase F(0) complex subunit C1, mitochondrial
The assay can be described thus: acidification rate (Seahorse XF96), isolated heart mitochondria. Format: biochemical. To be noted: ATP 20 mM; pH 7.2; oligomycin-sensitive.

In assay [2] the target is T1, mitochondrial ATP synthase (F1F0ATPase, Complex V, CV). The assay can be described thus: HyFS: acidification rate (Seahorse XF96), frozen heart mitochondria. In kind it is biochemical. To be noted: EPI 100 nM; ATP 20 mM; pH 7.2; MAS buffer; partial inhibition, ATP synthesis not impaired.
Assay [3] addresses T2, purified bovine CV (Complex V, F-type ATP synthase) (Bos taurus, UniProt P00829+P19483).
T2 construct: gene ATP5F1A; native purification from bovine heart; monomer (LMNG), tetramer (GDN) and oligomer preparations; with ATP synthase F(1) complex subunit gamma, mitochondrial; ATP synthase F(1) complex subunit delta, mitochondrial; ATP synthase F(1) complex subunit epsilon, mitochondrial; ATP synthase peripheral stalk subunit OSCP, mitochondrial; ATP synthase peripheral stalk subunit b, mitochondrial; ATP synthase peripheral stalk subunit d, mitochondrial; ATP synthase peripheral stalk subunit F6, mitochondrial; ATP synthase F(0) complex subunit a; ATP synthase F(0) complex subunit 8; ATP synthase F(0) complex subunit C1, mitochondrial
The assay can be described thus: in-gel ATP hydrolysis, blue native gel, purified CV. Format: biochemical. To be noted: monomer, tetramer and oligomers, also F1 subcomplex; independent of the ATPIF1 amount.

Assay [4] deals with T2, purified bovine CV (Complex V, F-type ATP synthase). Kind of assay: competition with ATPIF1-GFP for CV tetramer, blue native gel fluorescence. To be noted: indirect binding read-out; prevents ATPIF1-GFP binding, does not displace bound ATPIF1; room temperature.

SMILES strings stand for the structures.

For the molecule `Nc1ncnc2c1ncn2[C@@H]1O[C@H](COP(=O)(O)OP(=O)(O)OP(=O)(O)O)[C@@H](O)[C@H]1O` [ATP], the “acidification rate (Seahorse XF96), isolated heart mitochondria” value in assay [1] is “addition of ATP resulted in a sharp increase in proton release that was oligomycin sensitive”.

For `Oc1cc(O)c2c(c1)O[C@@H](c1ccc(O)c(O)c1)[C@@H](O)C2` [EPI, (+)-Epicatechin], the “% inhibition” value in assay [2] is reported as ~ 30%. Further, the “in-gel ATP hydrolysis, blue native gel, purified CV” value in assay [3] is reported as “We found that EPI inhibited ATP hydrolysis independently of the amount of ATPIF1”. Further, the “competition with ATPIF1-GFP for CV tetramer, blue native gel fluorescence” value in assay [4] was “In both purified tetramers and isolated mitochondria, EPI prevented the binding of ATPIF1‐GFP”.
